Results from PubChem BioAssay AID192 (DTP/NCI, 2004).
Several values for one entry are separate records, joined by “and”; a condition that tells them apart may be missing. Equal entries are not always repeated. Toxic doses and inconclusive results are not listed.

Test system: BDF1 mice, B16 melanoma ip, median survival T/C
Experiment: NCI In Vivo Anticancer Drug Screen. Data for tumor model B16 Melanoma (intraperitoneal) in B6D2F1 (BDF1) mice
Settings: endpoint: median survival time, higher = longer survival
How it was run: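 Each result divides a survival or tumor-size measurement in the compound-treated group by the same measurement in the vehicle group.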

[1] = dose: 12.5 mg/kg/injection, schedule: Q01DX009 (ip), vehicle: saline
[2] = dose: 25.0 mg/kg/injection, schedule: Q01DX009 (ip), vehicle: saline
[3] = dose: 25.0 mg/kg/injection, schedule: Q04DX003 (ip), vehicle: saline
[4] = dose: 50.0 mg/kg/injection, schedule: Q01DX009 (ip), vehicle: saline with Tween-80
[5] = dose: 50.0 mg/kg/injection, schedule: Q01DX009 (ip), vehicle: saline
[6] = dose: 100.0 mg/kg/injection, schedule: Q01DX009 (ip), vehicle: saline with Tween-80
[7] = dose: 100.0 mg/kg/injection, schedule: Q04DX003 (ip), vehicle: saline
[8] = dose: 200.0 mg/kg/injection, schedule: Q01DX009 (ip), vehicle: saline with Tween-80
[9] = dose: 50.0 mg/kg/injection, schedule: Q01DX009 (ip), vehicle: Klucel (hydroxypropylcellulose) (HPC)
[10] = dose: 100.0 mg/kg/injection, schedule: Q01DX009 (ip), vehicle: Klucel (hydroxypropylcellulose) (HPC)
[11] = dose: 200.0 mg/kg/injection, schedule: Q01DX009 (ip), vehicle: Klucel (hydroxypropylcellulose) (HPC)
[12] = dose: 400.0 mg/kg/injection, schedule: Q01DX009 (ip), vehicle: Klucel (hydroxypropylcellulose) (HPC)
[13] = dose: 6.25 mg/kg/injection, schedule: Q01DX009 (ip), vehicle: saline
[14] = dose: 100.0 mg/kg/injection, schedule: Q01DX009 (ip), vehicle: saline
[15] = dose: 200.0 mg/kg/injection, schedule: Q01DX009 (ip), vehicle: saline
[16] = dose: 25.0 mg/kg/injection, schedule: Q01DX009 (ip), vehicle: Klucel (hydroxypropylcellulose) (HPC)
[17] = dose: 200.0 mg/kg/injection, schedule: Q04DX003 (ip), vehicle: saline

## COc1ccc2cc1Oc1ccc(cc1)C[C@H]1c3cc(c(OC)cc3CCN1C)Oc1c(OC)c(OC)cc3c1[C@H](C2)N(C)CC3
dose: 12.5 mg/kg/injection, schedule: Q01DX009 (ip), vehicle: other
  T/C: 109 % of control
dose: 12.5 mg/kg/injection, schedule: Q01DX009 (ip), vehicle: saline with Tween-80
  T/C: 106 % of control and 108 % of control
[1]
  T/C: 97 % of control
dose: 12.5 mg/kg/injection, schedule: Q04DX003 (ip), vehicle: saline
  T/C: 94 % of control
dose: 25.0 mg/kg/injection, schedule: Q01DX009 (ip), vehicle: other
  T/C: 106 % of control
dose: 25.0 mg/kg/injection, schedule: Q01DX009 (ip), vehicle: saline with Tween-80
  T/C: 106 % of control and 115 % of control
[2]
  T/C: 100 % of control
[3]
  T/C: 108 % of control
dose: 50.0 mg/kg/injection, schedule: Q01DX009 (ip), vehicle: other
  T/C: 102 % of control
[4]
  T/C: 94 % of control and 113 % of control
[5]
  T/C: 105 % of control
dose: 50.0 mg/kg/injection, schedule: Q04DX003 (ip), vehicle: saline
  T/C: 97 % of control
[6]
  T/C: 89 % of control and 101 % of control and 109 % of control
[7]
  T/C: 100 % of control

## CC(C)CC(NC(=O)C(CC(C)C)NC(=O)OCc1ccccc1)C(=O)O (stereo not given)
[4]
  T/C: 97 % of control
[6]
  T/C: 101 % of control
[8]
  T/C: 92 % of control

## c1ccc([Te][Te]c2ccccc2)cc1
dose: 3.0 mg/kg/injection, schedule: Q01DX009 (ip), vehicle: saline with Tween-80
  T/C: 123 % of control
dose: 6.0 mg/kg/injection, schedule: Q01DX009 (ip), vehicle: saline with Tween-80
  T/C: 123 % of control

## CN(C)N=C1CCCC1
dose: 16.5 mg/kg/injection, schedule: Q04DX003 (ip), vehicle: saline
  T/C: 107 % of control
[3]
  T/C: 115 % of control
dose: 37.5 mg/kg/injection, schedule: Q04DX003 (ip), vehicle: saline
  T/C: 112 % of control

## CS(=O)(=O)c1ccnc2ccccc12
[9]
  T/C: 91 % of control
[10]
  T/C: 90 % of control

## O=Cc1ccc(/C=C2\C=Cc3ccccc32)cc1
[6]
  T/C: 97 % of control

## CC(C)(COC(=O)c1ccccc1)COC(=O)c1ccccc1
[10]
  T/C: 111 % of control
[11]
  T/C: 105 % of control
[12]
  T/C: 99 % of control

## CC1(C)N=C(N)N=C(N)N1c1ccc(F)c(C(F)(F)F)c1
dose: 3.12 mg/kg/injection, schedule: Q01DX009 (ip), vehicle: saline
  T/C: 96 % of control
[13]
  T/C: 118 % of control
dose: 12.0 mg/kg/injection, schedule: Q01DX009 (ip), vehicle: saline
  T/C: 120 % of control

## OCC12COCN1COC2
[1]
  T/C: 117 % of control
[2]
  T/C: 119 % of control
[5]
  T/C: 111 % of control
[14]
  T/C: 117 % of control
[15]
  T/C: 119 % of control

## CC1=C/C(O)CC(=O)Cc2nc(co2)C(=O)N2CCC=C2C(=O)OC(C(C)C)C(C)/C=C\C(=O)NC/C=C\1 (stereo not given)
[16]
  T/C: 91 % of control
[9]
  T/C: 102 % of control
[10]
  T/C: 118 % of control
[11]
  T/C: 123 % of control
dose: 0.5 micrograms/kg/injection, schedule: Q01DX009 (ip), vehicle: saline
  T/C: 103 % of control
dose: 1.0 micrograms/kg/injection, schedule: Q01DX009 (ip), vehicle: saline
  T/C: 102 % of control
dose: 2.0 micrograms/kg/injection, schedule: Q01DX009 (ip), vehicle: saline
  T/C: 107 % of control

## C[C@@H]1CN1C1=CC(=O)C(N2C[C@H]2C)=CC1=O
dose: 0.25 mg/kg/injection, schedule: Q01DX009 (ip), vehicle: saline
  T/C: 104 % of control
dose: 0.5 mg/kg/injection, schedule: Q01DX009 (ip), vehicle: saline
  T/C: 95 % of control

## COC(=O)CCC1=C(C)c2cc3[n-]c(cc4nc(cc5[n-]c(cc1n2)c(CCC(=O)OC)c5C)C=C4C)cc3C.[Ni+2]
dose: 1.56 mg/kg/injection, schedule: Q01DX009 (ip), vehicle: saline with Tween-80
  T/C: 91 % of control
dose: 3.13 mg/kg/injection, schedule: Q01DX009 (ip), vehicle: saline with Tween-80
  T/C: 88 % of control
dose: 6.25 mg/kg/injection, schedule: Q01DX009 (ip), vehicle: saline with Tween-80
  T/C: 86 % of control

## N=C(N)SCCCN
[7]
  T/C: 109 % of control
[15]
  T/C: 93 % of control
[17]
  T/C: 104 % of control

## CN(C)c1ccc(C(=O)c2ccc(N(C)C)cc2)cc1
[7]
  T/C: 104 % of control
[17]
  T/C: 111 % of control
dose: 400.0 mg/kg/injection, schedule: Q04DX003 (ip), vehicle: saline
  T/C: 100 % of control

## Nc1nc(-c2ccccc2N=NN2CCN(N=Nc3ccccc3-c3nc(N)c4ccccc4n3)CC2)nc2ccccc12
dose: 3.12 mg/kg/injection, schedule: Q01DX009 (ip), vehicle: Klucel (hydroxypropylcellulose) (HPC)
  T/C: 95 % of control
dose: 6.25 mg/kg/injection, schedule: Q01DX009 (ip), vehicle: Klucel (hydroxypropylcellulose) (HPC)
  T/C: 92 % of control
dose: 12.5 mg/kg/injection, schedule: Q01DX009 (ip), vehicle: Klucel (hydroxypropylcellulose) (HPC)
  T/C: 107 % of control
[16]
  T/C: 107 % of control
[9]
  T/C: 113 % of control

## COC(=O)/C=C/NC(=O)c1ccccc1C(=O)OC
dose: 100.0 mg/kg/injection, schedule: Q04DX003 (ip), vehicle: Klucel (hydroxypropylcellulose) (HPC)
  T/C: 86 % of control
[11]
  T/C: 97 % of control
dose: 200.0 mg/kg/injection, schedule: Q04DX003 (ip), vehicle: Klucel (hydroxypropylcellulose) (HPC)
  T/C: 86 % of control

## O=C1NC(O)CCN1C1OC(CO)C(O)C1O (stereo not given)
[2]
  T/C: 111 % of control and 124 % of control
[5]
  T/C: 110 % of control and 121 % of control
[14]
  T/C: 102 % of control and 106 % of control
[15]
  T/C: 96 % of control and 120 % of control
dose: 400.0 mg/kg/injection, schedule: Q01DX009 (ip), vehicle: saline
  T/C: 106 % of control and 118 % of control
dose: 800.0 mg/kg/injection, schedule: Q01DX009 (ip), vehicle: saline
  T/C: 105 % of control and 107 % of control

## COc1ccc(CSCC(NC(=O)OC(C)(C)C)C(=O)O)cc1 (stereo not given)
[10]
  T/C: 110 % of control
[11]
  T/C: 97 % of control
[12]
  T/C: 95 % of control

## CCC1CN2CCC3(C(=O)Nc4ccccc43)C2CC1/C(=C/OC)C(=O)OC (stereo not given)
[4]
  T/C: 95 % of control

## NC(N)=NCCc1ccccc1
dose: 5.0 mg/kg/injection, schedule: Q01DX009 (ip), vehicle: saline
  T/C: 119 % of control
dose: 10.0 mg/kg/injection, schedule: Q01DX009 (ip), vehicle: saline
  T/C: 111 % of control
dose: 20.0 mg/kg/injection, schedule: Q01DX009 (ip), vehicle: saline
  T/C: 114 % of control

## NCCCN=c1ccc2c3c1c(O)c1c(O)ccc(=O)c1c3[nH]n2CCNCCO
dose: 0.5 mg/kg/injection, schedule: Q01DX009 (ip), vehicle: water
  T/C: 158 % of control and 197 % of control
dose: 1.0 mg/kg/injection, schedule: Q01DX009 (ip), vehicle: water
  T/C: 187 % of control and 227 % of control
dose: 2.0 mg/kg/injection, schedule: Q01DX009 (ip), vehicle: water
  T/C: 216 % of control and 242 % of control
dose: 4.0 mg/kg/injection, schedule: Q01DX009 (ip), vehicle: water
  T/C: 216 % of control and 244 % of control
dose: 8.0 mg/kg/injection, schedule: Q01DX009 (ip), vehicle: water
  T/C: 216 % of control and 338 % of control
dose: 16.0 mg/kg/injection, schedule: Q01DX009 (ip), vehicle: water
  T/C: 158 % of control

## O=CNC(CSSCC(NC=O)C(=O)O)C(=O)O (stereo not given)
[6]
  T/C: 93 % of control
[8]
  T/C: 95 % of control

## CCCCN(C)N=Nc1ccc(CCCC(=O)OCC)cc1
dose: 1.56 mg/kg/injection, schedule: Q01DX009 (ip), vehicle: saline
  T/C: 97 % of control
dose: 3.13 mg/kg/injection, schedule: Q01DX009 (ip), vehicle: saline
  T/C: 100 % of control
[13]
  T/C: 100 % of control

## COc1cc2oc(=O)ccc2cc1[C@@H]1OC(=O)C2(C)O[C@@H]12 (stereo not given in full)
dose: 0.63 mg/kg/injection, schedule: Q01DX009 (ip), vehicle: distilled water + Tween-80
  T/C: 103 % of control
dose: 1.25 mg/kg/injection, schedule: Q01DX009 (ip), vehicle: distilled water + Tween-80
  T/C: 95 % of control
dose: 5.0 mg/kg/injection, schedule: Q01DX009 (ip), vehicle: distilled water + Tween-80
  T/C: 102 % of control
dose: 10.0 mg/kg/injection, schedule: Q01DX009 (ip), vehicle: distilled water + Tween-80
  T/C: 97 % of control
